Assay [1] has as its target T1, recombinant human IL17a (binding to its receptor IL17R) (Homo sapiens, UniProt Q16552).
T1 construct: purchased R&D Systems 317-ILB (IL17a); 177-IR (IL17R/Fc)
T1 sequence (Q16552 20-155 limits assumed): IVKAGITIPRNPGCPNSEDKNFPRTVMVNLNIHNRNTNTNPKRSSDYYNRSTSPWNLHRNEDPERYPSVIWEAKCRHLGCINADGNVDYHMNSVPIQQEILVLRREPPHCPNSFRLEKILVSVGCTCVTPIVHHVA
The experiment in a line: IL-17 competition ELISA I (IL17a coated, IL17R/Fc binding). The method, boiled down:
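Plates coated with 20 nM recombinant human IL17a received compound dilutions and 12 nM IL17R/Fc (final) for 30 min at room temperature. Bound receptor was detected with HRP anti-human Fc and TMB, read at 450 nm. IC50 came from a 4-parameter logistic fit between no-competitor and blank controls.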

Assay [2] has as its target T2, biotinylated human IL-17 (binding to IL17R/Fc) (Homo sapiens, UniProt Q16552).
T2 construct: purchased R&D Systems 317-ILB (IL-17, biotinylated); 177-IR (IL17R/Fc)
T2 sequence (Q16552 20-155 limits assumed): T1 sequence (Q16552 20-155 limits assumed)
The assay can be described thus: IL-17 competition ELISA II (captured IL17R/Fc, biotinylated IL-17). The method in brief:
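Competition read-out: absorbance at 450 nm after streptavidin-HRP/TMB detection, fitted to a 4-parameter logistic model bounded by no-competitor and blank wells to give IC50. Compound was serially diluted 5-fold from 1 μM alongside 20 nM (stock) biotinylated IL-17 on IL17R/Fc (10 nM) captured via goat anti-human IgG, 30 min at room temperature.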
A general note: An ELISA detects its analyte on a solid surface through an enzyme-linked reagent.

Assay [3] has as its system IL-17A induced secretion of IL-6 in primary human RASF cells. The assay can be described thus: Inhibition of IL17A induced secretion of IL6 in human rheumatoid arthritis synovial fibroblast (RASF) cells. The format is cell-based. As to conditions: Homo sapiens, Fibroblast. The method in brief: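 Primary RASF cells (passage 2-8) stimulated 20 h at 37 °C with rhIL-17A (30 ng/mL) pre-incubated 1 h with compound (final 0.03-25 μM, 0.25% DMSO). Supernatant IL-6 measured by ELISA, normalized to WST1 viability; triplicates.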

Structures are written as SMILES. Bounds are passed on as bounds.

In the case of `O=C1CNC(=O)[C@@H](Cc2ccc(NC(=O)[C@H](Cc3ccccc3Cl)NC(=O)Cc3ccc(CO)cc3)cc2)NC(=O)CC2(CCCC2)CC(=O)NCCCCCN1` [Compound 218], the concentration for half-maximal inhibition (IC50) in assay [1], in assay [2] and in assay [3] was < 100 nM in each case.
With `O=C1CNC(=O)[C@@H](Cc2ccc(NC(=O)[C@H](Cc3ccccc3Cl)NC(=O)CC3CCCCC3)cc2)NC(=O)CC2(CCCC2)CC(=O)NCCCCCN1` [Compound 236], the IC50 (as a rule, the point on the concentration scale where inhibition reaches its midpoint) in assay [1] was < 100 nM; in assay [3], 1000 to 10000 nM.
Regarding `O=C1CNC(=O)[C@@H](Cc2ccc(NC(=O)[C@H](CC3CCC3)NC(=O)Cc3ccccc3)cc2)NC(=O)CC2(CCCC2)CC(=O)NCCCCCN1` [Compound 246], the figures for the IC50 in assay [1], in assay [2] and in assay [3] were < 100 nM, < 100 nM and > 10000 nM, respectively.
For the compound `CC1(C)CC(=O)NCCCCCNC(=O)CNC(=O)[C@@H](Cc2ccc(NC(=O)[C@@H](NC(=O)Cc3ccccc3)C3CCCCC3)cc2)NC(=O)C1` [Compound 251], the IC50 in assay [1] lay within 100 to 1000 nM; in assay [3], 1000 to 10000 nM.
Taken in the same sequence, the figures for `CC1(C)CC(=O)NCCCCCNC(=O)CNC(=O)[C@@H](Cc2ccc(NC(=O)[C@@H](NC(=O)Cc3ccc(O)cc3)C3CCCCC3)cc2)NC(=O)C1` [Compound 253] were 100 to 1000 nM and 1000 to 10000 nM.
Take `CC1(C)CC(=O)NCCCCCNC(=O)CNC(=O)[C@@H](Cc2ccc(NC(=O)[C@@H](NC(=O)c3cccnc3)C3CCCCC3)cc2)NC(=O)C1` [Compound 254]: the figures for the 50% inhibitory concentration (IC50) in assay [1] and in assay [3] were 1000 to 10000 nM and > 10000 nM, respectively.
`CN1CCNC(=O)CNC(=O)[C@@H](Cc2ccc(NC(=O)[C@H](Cc3ccccc3Cl)NC(=O)Cc3ccc(O)cc3)cc2)NC(=O)CC2(CCCC2)CC(=O)NCC1` [Compound 260]: the concentration for half-maximal inhibition (IC50) was < 100 nM in assay [1] and 1000 to 10000 nM in assay [3].
In the case of `O=C1CC2(CCCC2)CC(=O)N[C@H](Cc2ccc(NC(=O)[C@H](Cc3ccccc3Cl)NC(=O)Cc3ccccc3)cc2)C(=O)N[C@H](Cc2ccccc2)C(=O)NCCCCCN1` [Compound 261], the 50% inhibitory concentration (IC50) in assay [1] is < 100 nM; in assay [3], 1000 to 10000 nM.
Taken in the same sequence, the figures for `O=C1CC2(CCCC2)CC(=O)N[C@H](Cc2ccc(NC(=O)[C@H](Cc3ccccc3Cl)NC(=O)Cc3ccc(O)cc3)cc2)C(=O)NCCCCCCCCN1` [Compound 263] were < 100 nM and 1000 to 10000 nM.
With `CC(=O)N[C@@H](Cc1ccccc1Cl)C(=O)Nc1ccc(C[C@H]2NC(=O)CC3(CCCC3)CC(=O)N[C@H](C(=O)O)CCCCNC(=O)CNC2=O)cc1` [Compound 264], the half-inhibitory concentration (IC50) is < 100 nM in assay [1], < 100 nM in assay [2] and 100 to 1000 nM in assay [3].
As to `O=C1CNC(=O)[C@@H](Cc2ccc(NC(=O)[C@H](Cc3ccccc3Cl)NC(=O)c3cccnc3)cc2)NC(=O)CC2(CCCC2)CC(=O)N[C@H](C(=O)O)CCCCN1` [Compound 266], the results for the 50% inhibitory concentration (IC50) in assay [1], in assay [2] and in assay [3] were < 100 nM, < 100 nM and 100 to 1000 nM, respectively.
In the case of `CNC(=O)N[C@@H](Cc1ccccc1Cl)C(=O)Nc1ccc(C[C@H]2NC(=O)CC3(CCCC3)CC(=O)NCCCCCNC(=O)CNC2=O)cc1` [Compound 273], the concentration for half-maximal inhibition (IC50) was 100 to 1000 nM in assay [1], < 100 nM in assay [2] and 1000 to 10000 nM in assay [3].
For the compound `CN(C)C(=O)N[C@@H](Cc1ccccc1Cl)C(=O)Nc1ccc(C[C@H]2NC(=O)CC3(CCCC3)CC(=O)NCCCCCNC(=O)CNC2=O)cc1` [Compound 274], the values for the IC50 in assay [1], in assay [2] and in assay [3] were < 100 nM, < 100 nM and 100 to 1000 nM, respectively.
Consider `C[C@H]1NC(=O)[C@@H](Cc2ccc(NC(=O)[C@H](Cc3ccccc3Cl)NC(=O)Cc3ccccc3)cc2)NC(=O)CC2(CCCC2)CC(=O)NCCCCCNC1=O` [Compound 288], for which the IC50 in assay [1], in assay [2] and in assay [3] was < 100 nM throughout.
On to `O=C1CNC(=O)[C@@H](Cc2ccc(NC(=O)[C@H](CC3CCCCC3)NC(=O)Cc3ccccc3)cc2)NC(=O)CC2(CCCC2)CC(=O)NCCCCCN1` [Compound 293], for which the IC50 in assay [1] is 100 to 1000 nM; in assay [2], < 100 nM; in assay [3] it was 1000 to 10000 nM.
Consider `O=C1CNC(=O)[C@@H](Cc2ccc(NC(=O)[C@H](Cc3ccccc3Cl)NC(=O)NCc3ccccc3)cc2)NC(=O)CC2(CCCC2)CC(=O)NCCCCCN1` [Compound 302], for which the values for the IC50 in assay [1], in assay [2] and in assay [3] were < 100 nM, < 100 nM and 100 to 1000 nM, respectively.
Turning to `O=C1CNC(=O)[C@@H](Cc2ccc(NC(=O)[C@H](Cc3ccccc3Cl)NC(=O)Cc3ccc(F)cc3)cc2)NC(=O)CC2(CCCC2)CC(=O)NCCCCCN1` [Compound 305], the figures for the concentration for half-maximal inhibition (IC50) in assay [1], in assay [2] and in assay [3] were < 100 nM, < 100 nM and 100 to 1000 nM, respectively.
Take `O=C1CNC(=O)[C@@H](Cc2ccc(NC(=O)[C@@H](NC(=O)Cc3ccccc3)C3CCCCC3)cc2)NC(=O)CC2(CCCC2)CC(=O)N[C@H](C(=O)O)CCCCN1` [Compound 316]: the 50% inhibitory concentration (IC50) in assay [1] is < 100 nM; in assay [2], < 100 nM; in assay [3], 100 to 1000 nM.
Turning to `CN1CCCCCNC(=O)CNC(=O)[C@@H](Cc2ccc(NC(=O)[C@@H](NC(=O)Cc3ccccc3)C3CCCCC3)cc2)NC(=O)CC2(CCCC2)CC1=O` [Compound 332], the IC50 is 100 to 1000 nM in assay [1], < 100 nM in assay [2] and 1000 to 10000 nM in assay [3].
Consider `O=C1CC2(CCCC2)CC(=O)N[C@H](Cc2ccc(NC(=O)[C@@H](NC(=O)Cc3ccc(CO)cc3)C3CCCCC3)cc2)C(=O)N[C@H](Cc2ccccc2)C(=O)NCCCCCN1` [Compound 336], for which the IC50 in assay [1] was 100 to 1000 nM; in assay [2], < 100 nM; in assay [3] it was 100 to 1000 nM.
For the compound `O=C1CNC(=O)[C@@H](Cc2ccc(NC(=O)[C@H](Cc3ccccc3Cl)NC(=O)Cc3ccccc3)cc2)NC(=O)CC2(CCCC2)CC(=O)NCCNCCN1` [Compound 338], the figures for the half-maximal inhibitory concentration (IC50) in assay [1], in assay [2] and in assay [3] were 100 to 1000 nM, < 100 nM and > 10000 nM, respectively.
Regarding `O=C1CC2(CCCC2)CC(=O)N[C@H](Cc2ccc(NC(=O)[C@H](Cc3ccccc3Cl)NC(=O)Cc3ccccc3)cc2)C(=O)NCC(=O)N[C@H](C(=O)O)CCCCN1` [Compound 339], the results for the IC50 in assay [1], in assay [2] and in assay [3] were < 100 nM, < 100 nM and 100 to 1000 nM, respectively.
Take `O=C1CC2(CCCC2)CC(=O)N[C@H](Cc2ccc(NC(=O)[C@H](Cc3ccccc3Cl)NC(=O)Cc3ccccc3)cc2)C(=O)N[C@H](CO)C(=O)NCCCCCN1` [Compound 340]: the half-maximal inhibitory concentration (IC50) in assay [1] is < 100 nM; in assay [2], < 100 nM; in assay [3], 100 to 1000 nM.
Consider `NC(=O)CC[C@H]1NC(=O)[C@@H](Cc2ccc(NC(=O)[C@H](Cc3ccccc3Cl)NC(=O)Cc3ccccc3)cc2)NC(=O)CC2(CCCC2)CC(=O)NCCCCCNC1=O` [Compound 341], for which the IC50 in assay [1], in assay [2] and in assay [3] was < 100 nM throughout.
Turning to `C[C@H]1NC(=O)[C@@H](Cc2ccc(NC(=O)[C@@H](NC(=O)Cc3ccccc3)C3CCCCC3)cc2)NC(=O)CC2(CCCC2)CC(=O)NCCCCCNC1=O` [Compound 342], the values for the IC50 in assay [1], in assay [2] and in assay [3] were 100 to 1000 nM, < 100 nM and 100 to 1000 nM, respectively.
Consider `COC(=O)[C@@H]1CCCCNC(=O)CNC(=O)[C@@H](Cc2ccc(NC(=O)[C@@H](NC(=O)c3cccnc3)C3CCCCC3)cc2)NC(=O)CC2(CCCC2)CC(=O)N1` [Compound 352], for which the IC50 in assay [1] is 1000 to 10000 nM; in assay [3] it was > 10000 nM.
Turning to `C[C@H]1NC(=O)[C@@H](Cc2ccc(NC(=O)[C@H](Cc3ccccc3Cl)NC(=O)c3cccnc3)cc2)NC(=O)CC2(CCCC2)CC(=O)NCCCCCNC1=O` [Compound 353], the half-maximal inhibitory concentration (IC50) is 100 to 1000 nM in assay [1], < 100 nM in assay [2] and 1000 to 10000 nM in assay [3].
Regarding `C[C@H]1NC(=O)[C@@H](Cc2ccc(NC(=O)[C@@H](NC(=O)c3cccnc3)C3CCCCC3)cc2)NC(=O)CC2(CCCC2)CC(=O)NCCCCCNC1=O` [Compound 361], the IC50 in assay [1] is 100 to 1000 nM; in assay [2], < 100 nM; in assay [3], 1000 to 10000 nM.
Regarding `C[C@H]1NC(=O)[C@@H](Cc2ccc(NC(=O)[C@H](Cc3ccccc3Cl)NC(=O)Cc3ccccc3)cc2)NC(=O)CC2(CCCC2)CC(=O)N[C@H](C(=O)O)CCCCNC1=O` [Compound 367], the half-inhibitory concentration (IC50) in assay [1], in assay [2] and in assay [3] was < 100 nM in each case.
Take `CC(C)C[C@H]1NC(=O)[C@@H](Cc2ccc(NC(=O)[C@H](Cc3ccccc3Cl)NC(=O)Cc3ccc(CO)cc3)cc2)NC(=O)CC2(CCCC2)CC(=O)N[C@H](C(=O)O)CCCCNC1=O` [Compound 660]: the half-maximal inhibitory concentration (IC50) in assay [2] and in assay [3] was < 100 nM in each case.
Turning to `O=C1CC2(CCCC2)CC(=O)N[C@H](Cc2ccc(NC(=O)[C@H](Cc3ccccc3Cl)NC(=O)Cc3ccc(CO)cc3)cc2)C(=O)N[C@H](Cc2c[nH]c3ccccc23)C(=O)NCCCC[C@@H](C(=O)O)N1` [Compound 661], the 50% inhibitory concentration (IC50) in assay [2] and in assay [3] was < 100 nM in each case.
For `O=C1CC2(CCCC2)CC(=O)N[C@H](Cc2ccc(NC(=O)[C@H](Cc3ccccc3Cl)NC(=O)Cc3ccc(CO)cc3)cc2)C(=O)N[C@H](Cc2c[nH]cn2)C(=O)NCCCC[C@@H](C(=O)O)N1` [Compound 662], the IC50 in assay [2] and in assay [3] was < 100 nM throughout.

The values above are taken from patent publication US9284283B2, “Macrocyclic compounds for modulating IL-17” (ENSEMBLE THERAPEUTICS CORPORATION, priority 2012, dated 2016).
